Read-outs that look alike come from different tables or passages of the source. Marks after values point to notes of the source that are not given here.
How the values were obtained:
Irritable bowel syndrome = details: 25, 50, or 100 mg/kg IP, 10 minutes post IBS model; cited from earlier work
[1] = system: aortic occlusion-induced ischemia/reperfusion (I/R) injury; type: in vivo, pig; details: median, initial study
erectile dysfunction = details: 0.25-80 umol/kg, Intracaver., before experiment; cited from earlier work
Cerebral Ischemia = details: 0.18 mmol/kg IP, 24 hours after MCAO; cited from earlier work
[2] = system: Gastric injury caused by NSAIDS; details: 25, 50, 100, or 150 mol/kg IP, immediately prior; cited from earlier work
vascular calcification = details: 2.8 or 14 uM/day, daily; cited from earlier work
[3] = system: myocardial ishemia-reperfusion injury; details: 3 mg/kg IP, 15 min before LAD; cited from earlier work
[4] = system: neutrophil adhesion, leukocyte-mediated inflam.; details: cited from earlier work
inflammation = details: 1, 5 and 10 mg/kg IP, 1-6 hours before study; cited from earlier work
cardioprotectant = details: 2.8 umol/kg IV, time zero; cited from earlier work
[5] = system: myocardial ischemia-reperfusion injury; set-up: dose or concentration left out as unconfirmed; details: 1 um, 10 um NaHS, perfusion, 10 min prior to LCA occlusion; cited from earlier work

Nc1ccc(O)c(C(=O)Oc2ccc(-c3cc(=S)ss3)cc2)c1 [ATB-429]
Benefit: pain and inflammation (Irritable bowel syndrome): Pain killing and some

S [NaHS, sodium hydrosulfide]
Tail moment (comet assay, DNA damage) ([1]; 1 h after clamping): 0.12 § | Tail moment (comet assay, DNA damage) ([1]; 2 h after clamping): 0.12 § | Tail moment (comet assay, DNA damage) ([1]; 4 h after clamping): 0.14 | Tail moment (comet assay, DNA damage) ([1]; 8 h after clamping): 0.14 | Tail moment (comet assay, DNA damage) ([1]; Before clamping): 0.11 | Tail moment (comet assay, DNA damage) ([1]; Before infusion): 0.125 | Benefit: intra-cavernous pressure (erectile dysfunction): Increase intra- | infarct volume (Cerebral Ischemia): increased to 150% of % of control | Benefit: injury produced by NSAID and ASA [2]: reduces injury | Benefit: vascular calcification (vascular calcification): reduces vascular | Benefit: cardioprotection [3]: cardioprotective opens | Benefit: inflammation ([4]; 1-100 uMol/kg IP, 30 min prior to cargeenan injection): inhibits inflammation | Benefit: substance P levels (inflammation): Increases substance P | Benefit: central venous pressure (cardioprotectant): decrease central

O.[Na+].[SH-] [NaHS•xH2O]
Benefit: infarct size [5]: NAHS, limited infarct

sodium sulfide [Na2S]
Benefit: inflammation ([4]; rat, in vivo, ip): inhibits inflammation

Source: patent US8226986B2 (priority 2006, dated 2012)
